Experimental data from paper PMC10745061 (Marine Drugs, 2023).
Like-named read-outs stand apart in the source and are kept apart here. Where a SMILES comes first, the peptide text is derived from it. Bridges are numbered along the chain shown (N, C = ends).

Legend:
[1] = 25% human serum in PBS pH 7.4, 37 °C; for a/b (%), ratio of the peptide forms in serum: RP-HPLC, ratio estimated from MALDI-TOF MS, two independent experiments
RP-HPLC retention time = assay type: physicochemical; details: semi-preparative RP-HPLC, C18 column, linear gradient 5 to 80% (v/v) acetonitrile in water with 0.1% TFA within 50 min
Experimental: Figure 2 Structure analysis of the novel BRICHOS-related peptides HfBRI-25 and HfBRI-28. (A) Characteristics of the obtained peptides. ^1 Mean Kyte–Doolittle hydrophobicity index (GRAVY) was calculated using the Expasy ProtParam tool. The maximum and minimum values of this index are +4.5 and −4.5 for poly-Ile and poly-Arg sequences, respectively. ^2 Percentage of hydrophobic amino acids was calculated using the APD3 database. ^3 Retention times were measured using semi-preparative reversed-phase high-performance liquid chromatography (RP-HPLC) on a C18 column with a linear gradient from 5 to 80% (v/v) acetonitrile in water containing 0.1% trifluoroacetic acid (TFA) within 50 min. ^4 Molecular masses were calculated by considering the presence of four Cys residues forming two disulfide bonds in the case of HfBRI-25. ^5 Molecular masses were determined experimentally using MALDI-TOF mass spectrometry. (B) Spatial structures of HfBRI-25 and HfBRI-28 were modeled using the AlphaFold algorithm (ColabFold server). The top-rated models, according to predicted local distance difference test (pLDDT) scores, were visualized by the PyMOL software. (C) The CD-spectra of the peptides in water or in the presence of 30 mM DPC micelles. (D) The CONTINLL program was used for CD data analysis. […]

E. coli = assay type: cell-based, Escherichia coli; details: panel incl. clinically isolated UPEC, MDR and XDR strains; regardless of resistance profile, biofilm production, presence of serum
Experimental: The clinical isolates were collected and provided by Sechenov First Moscow State Medical University hospital and the State Collection of Pathogenic Microorganisms “Obolensk” (SRCAMB collection). The resistant to conventional antibiotics strains were defined as extensively drug resistant (XDR), according to [47]. Bacterial test cultures were grown in a Mueller–Hinton broth (MHB, Sigma) at 37 °C to mid-log phase and then diluted with the 2× MH medium supplemented with 1.8% NaCl (and, optionally, with fetal bovine serum (FBS, Gibco) at different concentrations) or without salt so that to reach a final cell concentration of 10^6 CFU/mL. Moreover, 50 μL of the obtained bacterial suspension were added to aliquots of 50 μL of the peptide solutions serially diluted with sterilized 0.1% bovine serum albumin (BSA) in 96-well flat-bottom polystyrene microplates (Eppendorf #0030730011). After incubation for 24 h at 37 °C and 950 rpm on the plate thermoshaker (Biosan), minimum inhibitory concentrations (MIC) were determined as the lowest peptide concentrations that prevented growth of a test microorganism observed as visible turbidity. […] In the case of Mycobacterium smegmatis, MICs were determined in the Middlebrook 7H9 medium (HiMedia). The results were expressed as the median values determined on the basis of at least three independent experiments performed in triplicate.

[2] = tested on: E. coli K12 SBS 1936 biofilm; assay: Effect on established biofilm, MTT assay; assay type: cell-based, Escherichia coli; details: at 2 × MIC (4 μM), 24 h pre-formed biofilm, 16 h treatment in LB, 37 °C
Experimental: Bacterial biofilms play an important role in UTIs, being responsible for their persistence. Therefore, the eradication of mature biofilms is an extremely challenging task because high concentrations or doses of antibacterial agents are required. Here, the ability of HfBRI-25 to disrupt established biofilms was evaluated as a number of viable bacteria in biofilm using the MTT assay. According to our previous data, E. coli K12 SBS 1936 was chosen as a strong biofilm-producer that can form it in different media.
E. coli K12 SBS1936 was grown in LB broth overnight at 37 °C and diluted in the same media to obtain 1 × 10^6 CFU/mL. A total of 100 μL of bacterial suspension was added to each well of the 96-well polystyrene plate and grown at 32 °C and 120 rpm for 24 h. The wells were washed twice with sterile water to remove non-adherent cells. In parallel, 100 μL of peptide or ciprofloxacin solutions, serially diluted in LB medium using a separate 96-well polystyrene plate, were added to each well with pre-formed biofilm and incubated at 37 °C and 180 rpm for 16 h. Biofilm viability was assessed by using the MTT reagent (Sigma). […] Absorbance of each well was measured at 570 nm. Bacterial survival was calculated as a percentage relative to samples without antimicrobial agent. […]

CC[C@H](C)[C@@H]1NC(=O)[C@H](Cc2c[nH]c3ccccc23)NC(=O)[C@H](C(C)C)NC(=O)[C@@H]2CSSC[C@H](NC(=O)[C@H](CCCNC(=N)N)NC(=O)[C@H](CCCNC(=N)N)NC(=O)[C@H](C(C)C)NC(=O)[C@H](CCCNC(=N)N)NC(=O)[C@H](CCCNC(=N)N)NC(=O)CNC(=O)[C@H](CC(N)=O)NC(=O)[C@H](C(C)C)NC(=O)[C@H](CO)NC1=O)C(=O)N[C@@H](Cc1c[nH]c3ccccc13)C(=O)NCC(=O)N[C@@H](CO)C(=O)NCC(=O)N[C@H](C(=O)O)CSSC[C@H](NC(=O)CNC(=O)[C@H](CCCNC(=N)N)NC(=O)[C@@H]1CCCN1C(=O)[C@@H](N)CO)C(=O)N[C@@H](Cc1ccccc1)C(=O)N2 [HfBRI-25] (H-SPRGCFCVWISVNGRRVRRCWGSGC-OH; disulfide 5-25, 7-20; N-terminus and C-terminus assumed)
Part of the peptide converted into 23-residue form b ([1]; after 1 h of incubation): More than half
Two active forms (a/b) remained intact in serum ([1]; after 24 h, RP-HPLC peak area, mean of two independent experiments): more than 80%
a/b (%), ratio of the peptide forms in serum ([1]; time 1 h): 39%
a/b (%), ratio of the peptide forms in serum ([1]; time 3 h): 6%
a/b (%), ratio of the peptide forms in serum ([1]; time 24 h): 0%
RP-HPLC Retention Time (RP-HPLC retention time): 27.5 min
MIC value against all tested E. coli strains (E. coli): 1 to 2 µM
Bacterial viability inside established biofilm [2]: minimal residual bacterial viability
